Results taken from US20230057568A1, “COMPOUNDS FOR TREATING FAMILIAL DYSAUTONOMIA” (PTC THERAPEUTICS, INC., priority 2019, published 2023).

Tested on: Elongator complex protein 1 (ELP1, also referred to as IKBKAP)
Test: IKBKAP-HTRF Assay
Type: cell-based, human
Conditions: FD patient-derived fibroblasts GM04589, 48 hours incubation; for EC2x for IKBKAP protein expression (concentration producing two times the amount of IKBKAP protein vs DMSO vehicle control): 7-point concentration curve; for MFI (maximum fold increase in IKBKAP protein abundance relative to the vehicle control): HTRF
How it was run: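 Sandwich HTRF (anti-IKAP d2 and K(9+8)) on cell lysates measured IKBKAP protein after overnight 4 °C incubation, read at 665 and 620 nm. Lysates came from FD patient cells exposed 48 hours to 7-point compound dilutions, in triplicate. Outputs: maximum fold increase over vehicle, and EC2× (the concentration giving twice the DMSO-control protein level).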

Row | Structure (SMILES) | EC2x for IKBKAP protein expression (concentration producing two times the amount of IKBKAP protein vs DMSO vehicle control) | MFI (maximum fold increase in IKBKAP protein abundance relative to the vehicle control)
1 | Cc1c(C[C@H](C)N)sc2c(NCc3ccncc3F)nc(Cl)nc12 [Cpd 35, 6-[(2S)-2-aminopropyl]-2-chloro-N-[(3-fluoropyridin-4-yl)methyl]-7-methylthieno[3,2-d]pyrimidin-4-amine] | ***** (<0.005 μM) | ***** (>4.9)
2 | Cc1c(C[C@H](C)CN)sc2c(NCc3ccco3)nc(Cl)nc12 [Cpd 70, 6-[(2S)-3-amino-2-methylpropyl]-2-chloro-N-[(furan-2-yl)methyl]-7-methylthieno[3,2-d]pyrimidin-4-amine] | *** (between >0.02 μM and ≤0.5 μM) | **** (between >3.9 and <4.9)
3 | Cc1c(C[C@H](C)N)sc2c(NCc3ccc(F)s3)nc(Cl)nc12 [Cpd 33, 6-[(2S)-2-aminopropyl]-2-chloro-N-[(5-fluorothiophen-2-yl)methyl]-7-methylthieno[3,2-d]pyrimidin-4-amine] | **** (between >0.005 μM and ≤0.02 μM) | **** (between >3.9 and <4.9)
4 | Cc1nc(NCc2ccco2)c2sc(C[C@H](C)N)c(C)c2n1 [Cpd 15, 6-[(2S)-2-aminopropyl]-N-[(furan-2-yl)methyl]-2,7-dimethylthieno[3,2-d]pyrimidin-4-amine] | **** (between >0.005 μM and ≤0.02 μM) | ***** (>4.9)
5 | Cc1c(C[C@H](C)N)sc2c(NCc3cncs3)nc(Cl)nc12 [Cpd 74, 6-[(2S)-2-aminopropyl]-2-chloro-7-methyl-N-[(1,3-thiazol-5-yl)methyl]thieno[3,2-d]pyrimidin-4-amine] | *** (between >0.02 μM and ≤0.5 μM) | **** (between >3.9 and <4.9)
6 | Cc1c(C[C@H](C)N)sc2c(NCc3ncncc3F)nc(Cl)nc12 [Cpd 98, 6-[(2S)-2-aminopropyl]-2-chloro-N-[(5-fluoropyrimidin-4-yl)methyl]-7-methylthieno[3,2-d]pyrimidin-4-amine] | **** (between >0.005 μM and ≤0.02 μM) | ***** (>4.9)
7 | C[C@H](N)Cc1sc2c(NCc3cccs3)nc(C#N)nc2c1C#N [Cpd 85, 6-[(2S)-2-aminopropyl]-4-{[(thiophen-2-yl)methyl]amino}thieno[3,2-d]pyrimidine-2,7-dicarbonitrile] | *** (between >0.02 μM and ≤0.5 μM) | *** (between >2.9 and <3.9)
8 | COc1c(C[C@@H](N)CO)sc2c(NCc3cccs3)nc(Cl)nc12 [Cpd 99, (2R)-2-amino-3-(2-chloro-7-methoxy-4-{[(thiophen-2-yl)methyl]amino}thieno[3,2-d]pyrimidin-6-yl)propan-1-ol] | **** (between >0.005 μM and ≤0.02 μM) | *** (between >2.9 and <3.9)
9 | Cc1c(C[C@H](C)N)sc2c(NCc3ccccc3F)nc(Cl)nc12 [Cpd 44, 6-[(2S)-2-aminopropyl]-2-chloro-N-[(2-fluorophenyl)methyl]-7-methylthieno[3,2-d]pyrimidin-4-amine] | ***** (<0.005 μM) | ***** (>4.9)
10 | CC[C@H](N)Cc1sc2c(NCc3nccs3)nc(Cl)nc2c1C [Cpd 54, 6-[(2S)-2-aminobutyl]-2-chloro-7-methyl-N-[(1,3-thiazol-2-yl)methyl]thieno[3,2-d]pyrimidin-4-amine] | ***** (<0.005 μM) | ***** (>4.9)
11 | C[C@H](N)Cc1sc2c(NCc3cccs3)nc(Cl)nc2c1C1CC1 [Cpd 86, 6-[(2S)-2-aminopropyl]-2-chloro-7-cyclopropyl-N-[(thiophen-2-yl)methyl]thieno[3,2-d]pyrimidin-4-amine] | **** (between >0.005 μM and ≤0.02 μM) | **** (between >3.9 and <4.9)
12 | Clc1nc(NCc2cccs2)c2scc(Br)c2n1 [Cpd 80, 7-bromo-2-chloro-N-[(thiophen-2-yl)methyl]thieno[3,2-d]pyrimidin-4-amine] | *** (between >0.02 μM and ≤0.5 μM) | ***** (>4.9)
13 | Cc1csc2c(NCc3ccco3)nc(C(F)(F)F)nc12 [Cpd 25, N-[(furan-2-yl)methyl]-7-methyl-2-(trifluoromethyl)thieno[3,2-d]pyrimidin-4-amine] | * (EC2×>1 μM) | * (MFI<1.9)
14 | Clc1nc(NCc2ccco2)c2scc(Br)c2n1 [Cpd 42, 7-bromo-2-chloro-N-[(furan-2-yl)methyl]thieno[3,2-d]pyrimidin-4-amine] | *** (between >0.02 μM and ≤0.5 μM) | ***** (>4.9)
15 | Cc1c(C[C@H](C)N)sc2c(NCc3ncccc3F)nc(Cl)nc12 [Cpd 59, 6-[(2S)-2-aminopropyl]-2-chloro-N-[(3-fluoropyridin-2-yl)methyl]-7-methylthieno[3,2-d]pyrimidin-4-amine] | *** (between >0.02 μM and ≤0.5 μM) | **** (between >3.9 and <4.9)
16 | N#Cc1csc2c(NCc3cccs3)nc(Cl)nc12 [Cpd 84, 2-chloro-4-{[(thiophen-2-yl)methyl]amino}thieno[3,2-d]pyrimidine-7-carbonitrile] | *** (between >0.02 μM and ≤0.5 μM) | **** (between >3.9 and <4.9)
17 | N[C@@H](CO)Cc1cc2nc(Cl)nc(NCc3ccco3)c2s1 [Cpd 22, (2R)-2-amino-3-(2-chloro-4-{[(furan-2-yl)methyl]amino}thieno[3,2-d]pyrimidin-6-yl)propan-l-ol] | ***** (<0.005 μM) | ***** (>4.9)
18 | CC[C@H](N)Cc1cc2nc(Cl)nc(NCc3cccs3)c2s1 [Cpd 10, 6-[(2S)-2-aminobutyl]-2-chloro-N-[(thiophen-2-yl)methyl]thieno[3,2-d]pyrimidin-4-amine] | *** (between >0.02 μM and ≤0.5 μM) | **** (between >3.9 and <4.9)
19 | C[C@H](N)c1sc2c(NCc3ccco3)nc(Cl)nc2c1-c1ccccc1 [Cpd 58, 6-[(1S)-1-aminoethyl]-2-chloro-N-[(furan-2-yl)methyl]-7-phenylthieno[3,2-d]pyrimidin-4-amine] | * (EC2×>1 μM) | * (MFI<1.9)
20 | CC(C)(C)[C@H](N)Cc1cc2nc(Cl)nc(NCc3ccco3)c2s1 [Cpd 7, 6-[(2R)-2-amino-3,3-dimethylbutyl]-2-chloro-N-[(furan-2-yl)methyl]thieno[3,2-d]pyrimidin-4-amine] | ** (between >0.5 μL and ≤1 μM) | * (MFI<1.9)
21 | CC[C@H](N)Cc1sc2c(NCc3ccncn3)nc(Cl)nc2c1C [Cpd 89, 6-[(2S)-2-aminobutyl]-2-chloro-7-methyl-N-[(pyrimidin-4-yl)methyl]thieno[3,2-d]pyrimidin-4-amine] | ***** (<0.005 μM) | ***** (>4.9)
22 | CN[C@@H](C)Cc1sc2c(NCc3ccco3)nc(Cl)nc2c1C [Cpd 79, 2-chloro-N-[(furan-2-yl)methyl]-7-methyl-6-[(2S)-2-(methylamino)propyl]thieno[3,2-d]pyrimidin-4-amine] | *** (between >0.02 μM and ≤0.5 μM) | **** (between >3.9 and <4.9)
23 | Cc1csc2c(NCc3ccncc3)nc(Cl)nc12 [Cpd 23, 2-chloro-7-methyl-N-[(pyridin-4-yl)methyl]thieno[3,2-d]pyrimidin-4-amine] | *** (between >0.02 μM and ≤0.5 μM) | ***** (>4.9)
